SMILES strings stand for the structures. Entries after “also recorded” stand apart in the source; their conditions may differ.

The test system of one data set is chicken embryos. Nature of the data set: Chick embryo teratogenicity. It counts as in vivo. As for the experimental part:
Chick embryology and analysis: Chicken eggs were obtained from Henry Stewart & Co Ltd, Norfolk UK. All work with chicken embryos obeyed UK Home Office regulations and followed guidelines, standards and practices governed by the University of Aberdeen Ethics Committee (Scotland, UK). […] Embryos were incubated at 37° C. for the required time period to reach E2.5 and E4 (early and mid-developmental stages, respectively). Eggs were then opened and the embryonic membranes protecting the embryos were removed with forceps. Chicken embryos typically lie on one side, so the left side is directly against the yolk and the right side can be observed. Drug (TFBP) or Control (DMSO alone) solutions were applied in 100 μL aliquots over the middle of the embryo on its right side. Embryos were left at room temperature for 20 min before being replaced in a 37° C. incubator. Due to the limited diffusion of drugs when applied to the right side of an embryo, the right side is considered the ‘treatment’ side and the left (facing internally towards the yolk sack) is considered normal after treatment and can, thereby, act as an internal control.

The next data set deals with KC/GRO (CXCL1). Briefly: LPS model of inflammation in rats: KC/GRO (CXCL1). The class given is in vivo. As to conditions: 29.57 mg/kg i.p.; LPS rat model. As for the experimental part: (§1) Four hours after LPS injection, animals were euthanized, and blood and brain tissue were collected and placed on wet ice. Plasma was quickly separated from blood by centrifuge at 10,000 g. 5 min, 4° C., and brain regions of cortex, hippocampus and the rest of brain were dissected into separate vials on wet ice, then stored at −80° C. Brain tissues were then sonicated in a TRIS based lysis buffer (Mesoscale Discovery) with 3× protease/phosphatase inhibitors (Halt™ Protease and Phosphatase Inhibitor Cocktail, Thermo Fisher Scientific), were then centrifuged at 10,000 g, 10 min, 4° C., and protein concentrations were measured by Bicinchoninic acid assay (BCA, Thermo Fisher Scientific). Rat plasma, cerebral cortical and hippocampal samples were then analyzed by multi-proinflammatory cytokines ELISA (V-PLEX Proinflammatory Panel 2 Rat Kit, Mesoscale Discovery), following the manufacturer's protocol. The processes and dosages of the experiment of drug treatment effects on LPS rat model was made on the basis of our previous studies.

The test system of a further data set is IL-6. Briefly: LPS model of inflammation in rats: IL-6 in plasma, cortex, hippocampus. As to conditions: 29.57 mg/kg i.p.; LPS rat model. The class given is in vivo. As for the experimental part: as §1
Data set [1] is described as follows: Phase I metabolic stability in human liver microsomes (+/- NADPH, LC/MS). It counts as in vitro ADME. As for the experimental part:
The fluorinated compounds were evaluated under the more metabolically demanding conditions of a Phase-1-type microsomal analysis. […] For this initial comparison, the 7-fluoro-dithiopomaldiomide 30 was selected owing to its combination of favorable biological parameters and general ease of synthesis. The reactions on each sample were initiated by addition of human liver microsomes in the presence or absence of an NADPH regenerating system, and compound disappearance was monitored via LC/MS (FIG. 14, Table 10).

Where [2] appears, read: 3.5 μM, chicken embryos age E4, N = 7.
[3] abbreviates: 7.0 μM, chicken embryos age E2.5, N = 6.
Where [4] appears, read: 7.0 μM, chicken embryos age E4, N = 7.
Setting [5] is: 14.0 μM, chicken embryos age E2.5, N = 6.

Take `CC1(C)[C@@H]2CC[C@@]1(C)[C@@H](N1C(=O)c3c(F)c(F)c(F)c(F)c3C1=O)C2` [Compound 14, 4,5,6,7-Tetrafluoro-2-((1R,2S,4R)-1,7,7-trimethylbicyclo[2.2.1]heptan-2-yl) isoindoline-1,3-dione]: the Abnormal embryos with chicken embryos (setting [2]), in the data set with chicken embryos (setting [3]) and in the data set with chicken embryos (setting [4]) was 0 in each case. For the same compound, the Dead embryos in the data set with chicken embryos (setting [2]) stood at 0; in the data set with chicken embryos (setting [3]), 2; in the data set on chicken embryos (setting [4]), 3; with chicken embryos (setting [5]) it was 3. In addition, the Normal embryos in the data set with chicken embryos (setting [2]) amounted to 7; in the data set on chicken embryos (setting [3]), 4; in the data set on chicken embryos (setting [4]), 4; with chicken embryos (setting [5]), 2. Moreover, the “developmental anomaly in chicken embryos” value in the data set with chicken embryos (14.0 μM, a single embryo, eye on control side) is listed as “micro-opthalmia of the eye”. Moreover, in the data set on chicken embryos (14.0 μM, around 48-72 h after application), the “deaths of chicken embryos” value is “three deaths”. The “effects on embryo development” value in the data set on chicken embryos (3.5 and 7.0 μM) was “No effects on embryo development”. Also, the “tolerability in chicken embryos” value in the data set on chicken embryos (lower dose 3.5 μM, E2.5 and E4) was “well tolerated”. Besides, the “death rate in chicken embryos” value in the data set with chicken embryos (two higher doses 7.0 and 14.0 μM) was “increasing death rate”.
Regarding `Nc1ccc(F)c2c1C(=S)N(C1CCC(=S)NC1=O)C2=O` (stereo not drawn) [Compound 30, 4-amino-7-fluoro-2-(2-oxo-6-thioxopiperidin-3-yl)-3-thioxoisoindolin-1-one], the KC/GRO in brain entry in the data set on KC/GRO (CXCL1) is recorded as “significantly reduce”. The “IL-6 in plasma, cortex, and hippocampus” value with IL-6 is given as “significantly reduce”. Besides, the “more material remaining compared to non-fluorinated partner” value in data set [1] (vs 4′, human liver microsomes) is on record as “roughly 16%”. In addition, in data set [1] (vs non-fluorinated 4′, human liver microsomes), the “more stability in the absolute sense” value is 7%. Besides, in data set [1] (with and without NADPH), the “stability in human liver microsomes (in words)” value is “heightened resistance; also recorded: enhanced metabolic fortitude”.

Source of the values: patent US20260055061A1, “HALOPHTHALIMIDE COMPOUNDS AND METHODS OF USE AGAINST TBI, INFLAMMATORY DISORDER, AUTOIMMUNE DISORDER, NEURODEGENERATIVE DISEASE OR VIRAL INFECTION” (The United States of America, as represented by the …, priority 2022, published 2026).
